# Key:
# [1] = Toxicity, plasma biochemical analysis; assay type: in vivo, mouse; settings: 10 mg/kg/day oral, 7 days, mice
# Experimental: In vivo target (RET and VEGFR2) inhibition was studied by treating animals grafted with NIH3T3 RET/C634Y cells at different doses (0.3, 1, or 3 mg/kg/day p.o.) of NPA101.3 for 2 days and then performing Western blot analysis on protein extracts. […] Then, to determine antitumorigenic activity and to better distinguish RET- and VEGFR2-mediated effects, we tested NPA101.3 in nude mice transplanted with NIH3T3 cells transformed by either RET/C634Y or HRAS/G12V. Before tumors appeared, animals were treated daily with NPA101.3 (1.0, 3.0, or 10.0 mg/kg/day) or left untreated. […] Still, VEGFR2 inhibition was detected also in RAS-driven tumors, an effect that might explain the, albeit reduced, effect of the drug on their growth (Figure S13). Importantly, as predicted, no trace of NPA101.3 demethyl metabolites was detected after 1 or 4 h from oral dosing in mice (Figure S14).
# Patch-Clamp assay. The patch-clamp assay has been outsourced to Aptuit (Verona, Italy). […]
# After thawing, cells were maintained in culture using minimum essential medium supplemented with 10% foetal bovine serum, 1% non-essential amino acids, 1% sodium pyruvate, 2mM L-glutamine, 1% pen-strep, 15μg/ml blasticidin and 100 μg/ml hygromycin. hERG channel expression induction was obtained by adding 10 μg/ml tetracycline 48 h before the experiment. […] Current amplitude was measured and […]
# hERG = target: T1, hERG (Homo sapiens, UniProt Q12809); assay: hERG patch-clamp assay; assay type: cell-based
# T1 construct: host or cells: HEK293, tetracycline-inducible hERG
# T1 sequence (Q12809 whole entry): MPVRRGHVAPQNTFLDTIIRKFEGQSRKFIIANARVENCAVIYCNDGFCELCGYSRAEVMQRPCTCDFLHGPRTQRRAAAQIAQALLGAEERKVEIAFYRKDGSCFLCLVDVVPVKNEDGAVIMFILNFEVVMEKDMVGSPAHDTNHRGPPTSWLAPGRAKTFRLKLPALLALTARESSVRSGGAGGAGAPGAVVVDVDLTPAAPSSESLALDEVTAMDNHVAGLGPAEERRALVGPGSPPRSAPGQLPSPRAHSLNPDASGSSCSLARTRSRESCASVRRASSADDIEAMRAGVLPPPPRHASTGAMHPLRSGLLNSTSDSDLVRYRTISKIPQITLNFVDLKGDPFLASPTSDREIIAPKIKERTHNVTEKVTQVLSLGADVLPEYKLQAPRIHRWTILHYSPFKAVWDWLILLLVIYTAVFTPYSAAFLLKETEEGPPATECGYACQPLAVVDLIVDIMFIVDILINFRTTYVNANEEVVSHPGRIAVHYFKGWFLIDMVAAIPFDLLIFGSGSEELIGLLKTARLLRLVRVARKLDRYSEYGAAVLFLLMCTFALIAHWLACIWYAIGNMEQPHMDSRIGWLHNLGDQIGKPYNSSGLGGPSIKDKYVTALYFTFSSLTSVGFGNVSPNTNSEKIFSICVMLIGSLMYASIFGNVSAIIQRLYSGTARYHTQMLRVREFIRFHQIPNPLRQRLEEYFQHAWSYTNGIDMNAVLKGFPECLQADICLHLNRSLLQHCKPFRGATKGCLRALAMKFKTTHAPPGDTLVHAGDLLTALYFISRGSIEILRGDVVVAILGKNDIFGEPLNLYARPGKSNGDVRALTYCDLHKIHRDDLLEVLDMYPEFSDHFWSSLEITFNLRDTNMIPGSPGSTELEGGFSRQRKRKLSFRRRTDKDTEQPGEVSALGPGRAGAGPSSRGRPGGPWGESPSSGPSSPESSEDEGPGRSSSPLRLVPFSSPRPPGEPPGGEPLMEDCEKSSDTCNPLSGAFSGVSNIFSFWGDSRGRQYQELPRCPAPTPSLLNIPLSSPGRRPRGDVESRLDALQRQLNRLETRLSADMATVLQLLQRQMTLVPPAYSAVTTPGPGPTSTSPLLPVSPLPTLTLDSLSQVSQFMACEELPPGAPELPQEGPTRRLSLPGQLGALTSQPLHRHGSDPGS
# NIH3T3 HRAS/G12V cells = assay: Cell growth curves, transformed NIH3T3; assay type: cell-based; settings: up to 100.0 nM
# Experimental: Nthy-ory-3-1 (10000 per well), TPC-1 (10000 per well), MZ-CRC-1 (100000 per well), TT (200000 per well), Lc-2/ad (100000 per well), BCPAP (10000 per well), 8505-C (10000 per well), PC-9 (10000 per well), A549 (10000 per well), CALU-1 (10000 per well), NIH3T3 RET/C634Y (10000 per well), and NIH3T3 HRAS/G12V (10000 per well) were seeded in six-well tissue culture plates. Cells were kept in 2% (TPC-1), 5% (Nthy-ori-3-1), or 10% (BCPAP, 8505-C, CALU-1, A549, PC-9, TT, MZ-CRC-1, and Lc-2/ad) fetal calf serum or in 2% (NIH3T3 RET/C634Y and HRAS/G12V) calf serum. Ba/F3 cells (200000 per well in 2 mL) were seeded in six-well tissue culture plates and kept in 10% fetal calf serum. The day after plating, different concentrations of the drug or vehicle were added to the medium and changed every 2–3 days. Cells were counted every day (Ba/F3), every 2 days (fibroblasts), or every 2–3 days (human cell lines). […] IC50 doses were calculated through a curve fitting analysis from last day of growth curves using the PRISM software program (Graphpad Software Inc.).
# Supplementary Figure S9: NPA101.3-mediated inhibition of proliferation of RET-transformed NIH3T3 cells […] Serum-starved NIH3T3 cells exogenously expressing the RET/C634Y or HRAS/G12V oncogenes were incubated with vehicle (NT: not treated) or the indicated concentrations of the compound and counted at the indicated time points. […]
# [2] = test system: cells negative for RET oncogenes; assay: Growth inhibition, cells negative for RET oncogenes (summary); assay type: cell-based; settings: doses of ≤100 nM
# Experimental: Finally, NPA101.3 featured efficacy already at 1 mg/kg/day in RET-driven tumors in nude mice. […] Therefore, though in a therapeutic setting toxicity may be increased by hitting multiple targets, it is feasible that the activity of the NPA101.3 against RET-driven tumors may take advantage of a synergistic combination of cell autonomous (on tumor cell growth mediated by RET inhibition) and non-cell autonomous (on blood vessel formation mediated by VEGFR2 inhibition) effects, potentiating its effect and reducing the chances of resistance development. Several TKIs with anti-RET activity are available, and some are already registered for the treatment of different types of thyroid cancers. […]
# Nthy-ory-3-1 (10000 per well), TPC-1 (10000 per well), MZ-CRC-1 (100000 per well), TT (200000 per well), Lc-2/ad (100000 per well), BCPAP (10000 per well), 8505-C (10000 per well), PC-9 (10000 per well), A549 (10000 per well), CALU-1 (10000 per well), NIH3T3 RET/C634Y (10000 per well), and NIH3T3 HRAS/G12V (10000 per well) were seeded in six-well tissue culture plates. […] Cells were counted every day (Ba/F3), every 2 days (fibroblasts), or every 2–3 days (human cell lines). […] IC50 doses were calculated through a curve fitting analysis from last day of growth curves using the PRISM software program (Graphpad Software Inc.).
smiles,measurement,setting,value
CC(C)(C)c1cc(NC(=O)Cc2ccc(-n3cnc4cc(-c5ccc(S(C)(=O)=O)cc5)ccc43)cc2)no1 [NPA101.3],standard blood markers of organ damage,[1],no significant change
same,hERG IC50 relative to RET IC50,hERG; hERG 7.57 μM vs RET 1 nM,> 7000 fold
same,inhibition at 0.1 µM,"hERG; human, HEK293 cells expressing inducible hERG, 0.1 µM",0.41%
same,inhibition at 1 µM,"hERG; human, HEK293 cells expressing inducible hERG, 1 µM",14.6%
same,inhibition at 10 µM,"hERG; human, HEK293 cells expressing inducible hERG, 10 µM",55.9%
same,effect on proliferation of NIH3T3 HRAS/G12V cells,NIH3T3 HRAS/G12V cells,virtually no effect
same,growth effect in cells negative for RET oncogenes,[2],no detectable effect
